# In PMC9105384, “Ethyl Gallate Dual-Targeting PTPN6 and PPARγ Shows Anti-Diabetic and Anti-Obese Effects” (International Journal of Molecular Sciences, 2022):
# Columns and labels:
# PTPN6 [1] = molecular target: T1, PTPN6 (Homo sapiens, UniProt P29350); experiment: DiFMUP phosphatase screen, single dose […] (% inhibition, hit threshold […]); format: biochemical; conditions: read-out: % inhibition at 20 μM
# PTPRJ = molecular target: T2, PTPRJ (Homo sapiens, UniProt Q12913); design: DiFMUP hydrolysis by purified PTPs, fluorescence Ex355/Em460, initial rates over 10 min; Michaelis-Menten and Lineweaver-Burk Km; conditions: optimized pH for each PTP; substrate
# T2 sequence (Q12913 1-1337): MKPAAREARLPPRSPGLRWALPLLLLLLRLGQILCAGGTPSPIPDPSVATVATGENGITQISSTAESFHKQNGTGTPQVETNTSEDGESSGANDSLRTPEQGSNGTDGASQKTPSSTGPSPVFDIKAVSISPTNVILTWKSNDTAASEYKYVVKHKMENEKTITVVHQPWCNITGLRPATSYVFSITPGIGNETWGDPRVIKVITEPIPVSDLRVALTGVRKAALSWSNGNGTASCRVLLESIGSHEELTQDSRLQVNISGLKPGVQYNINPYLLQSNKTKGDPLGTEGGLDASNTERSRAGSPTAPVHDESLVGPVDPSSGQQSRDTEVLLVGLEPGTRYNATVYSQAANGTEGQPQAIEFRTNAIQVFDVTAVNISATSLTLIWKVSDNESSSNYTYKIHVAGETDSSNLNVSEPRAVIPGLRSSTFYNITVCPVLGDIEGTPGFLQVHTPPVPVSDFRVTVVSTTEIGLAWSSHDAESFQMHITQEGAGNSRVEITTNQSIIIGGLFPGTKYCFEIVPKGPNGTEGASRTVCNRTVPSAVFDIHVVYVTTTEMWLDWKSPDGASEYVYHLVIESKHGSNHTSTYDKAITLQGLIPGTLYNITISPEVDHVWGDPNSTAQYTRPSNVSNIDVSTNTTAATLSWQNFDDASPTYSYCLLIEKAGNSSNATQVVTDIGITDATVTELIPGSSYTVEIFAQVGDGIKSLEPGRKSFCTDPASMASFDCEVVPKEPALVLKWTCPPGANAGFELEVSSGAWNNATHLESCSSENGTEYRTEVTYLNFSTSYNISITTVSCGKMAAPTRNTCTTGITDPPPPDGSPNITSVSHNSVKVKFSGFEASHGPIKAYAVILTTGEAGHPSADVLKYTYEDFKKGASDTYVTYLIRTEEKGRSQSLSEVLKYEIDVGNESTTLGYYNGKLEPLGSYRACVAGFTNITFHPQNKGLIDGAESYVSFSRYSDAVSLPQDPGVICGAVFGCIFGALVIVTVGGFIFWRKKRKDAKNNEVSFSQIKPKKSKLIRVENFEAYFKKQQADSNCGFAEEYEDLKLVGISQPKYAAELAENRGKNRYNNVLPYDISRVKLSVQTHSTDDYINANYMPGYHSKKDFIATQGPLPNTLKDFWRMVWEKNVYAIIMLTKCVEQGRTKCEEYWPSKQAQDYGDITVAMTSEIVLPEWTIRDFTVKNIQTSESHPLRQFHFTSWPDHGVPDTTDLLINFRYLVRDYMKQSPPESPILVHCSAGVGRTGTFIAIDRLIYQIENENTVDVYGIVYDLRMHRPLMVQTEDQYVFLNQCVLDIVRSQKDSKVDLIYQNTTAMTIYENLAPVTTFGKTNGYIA
# Experimental: (§1) The enzymatic activity of each PTP was evaluated using 6,8-difluoro-4-methylumbelliferyl phosphate (DiFMUP) as the surrogate substrate. To reach within the range of the initial rate (v0) during the measurement for 10 min, the pH and concentration of each PTP were optimized and are listed in Table S3. To determine the Km values, each PTP with optimized concentration was added to the reaction buffer (20 mM Bis-Tris at pH 6.0 or Tris at pH 7.0 and 8.0, 150 mM NaCl, 2.5 mM dithiothreitol (DTT), 0.01% Triton X-100) containing various concentrations of DiFMUP to obtain a final volume of 100 μL in a 96-well plate. Fluorescence intensities were measured once every minute for a complete 10 min duration using a Victor™ X4 Multilabel Plate Reader (Perkin Elmer, Waltham, MA, USA) at excitation/emission = 355 nm/460 nm. The initial rates of the reaction were determined using a previously described procedure for calculating the amount of product formation. To screen a library of 1033 natural products (Chengdu Biopurify Phytochemicals Ltd., Chengdu, China) against 20 PTPs, each PTP with an optimized concentration was added to the reaction buffer with an optimized pH containing DiFMUP (2 × Km for each PTP) after adding each compound (20 μM). […] The Hill coefficient (nH), the degree of cooperativity, was calculated according to a previously published method. […]
# PTPN1 = molecular target: T3, PTPN1 (Homo sapiens, UniProt P18031); design: DiFMUP hydrolysis by purified PTPs, fluorescence Ex355/Em460, initial rates over 10 min; Michaelis-Menten and Lineweaver-Burk Km; conditions: optimized pH for each PTP; substrate
# T3 sequence (P18031 1-435): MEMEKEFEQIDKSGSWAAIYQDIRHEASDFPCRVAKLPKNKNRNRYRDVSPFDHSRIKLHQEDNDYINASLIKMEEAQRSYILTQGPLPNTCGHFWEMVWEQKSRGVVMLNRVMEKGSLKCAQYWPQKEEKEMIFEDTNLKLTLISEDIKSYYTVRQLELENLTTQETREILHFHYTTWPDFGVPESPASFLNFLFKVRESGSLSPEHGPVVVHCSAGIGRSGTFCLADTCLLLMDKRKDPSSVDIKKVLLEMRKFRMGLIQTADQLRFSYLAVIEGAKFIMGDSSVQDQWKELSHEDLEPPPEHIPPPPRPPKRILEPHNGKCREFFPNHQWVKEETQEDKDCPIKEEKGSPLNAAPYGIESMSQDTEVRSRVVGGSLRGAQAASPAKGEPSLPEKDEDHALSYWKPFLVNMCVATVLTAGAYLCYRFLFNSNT
# Experimental: as §1
# PTPN6 [2] = molecular target: T1, PTPN6; experiment: DiFMUP fluorescence phosphatase assay; Dixon and Lineweaver-Burk plots (IC50 […]); format: biochemical
# T1 sequence (P29350 whole entry): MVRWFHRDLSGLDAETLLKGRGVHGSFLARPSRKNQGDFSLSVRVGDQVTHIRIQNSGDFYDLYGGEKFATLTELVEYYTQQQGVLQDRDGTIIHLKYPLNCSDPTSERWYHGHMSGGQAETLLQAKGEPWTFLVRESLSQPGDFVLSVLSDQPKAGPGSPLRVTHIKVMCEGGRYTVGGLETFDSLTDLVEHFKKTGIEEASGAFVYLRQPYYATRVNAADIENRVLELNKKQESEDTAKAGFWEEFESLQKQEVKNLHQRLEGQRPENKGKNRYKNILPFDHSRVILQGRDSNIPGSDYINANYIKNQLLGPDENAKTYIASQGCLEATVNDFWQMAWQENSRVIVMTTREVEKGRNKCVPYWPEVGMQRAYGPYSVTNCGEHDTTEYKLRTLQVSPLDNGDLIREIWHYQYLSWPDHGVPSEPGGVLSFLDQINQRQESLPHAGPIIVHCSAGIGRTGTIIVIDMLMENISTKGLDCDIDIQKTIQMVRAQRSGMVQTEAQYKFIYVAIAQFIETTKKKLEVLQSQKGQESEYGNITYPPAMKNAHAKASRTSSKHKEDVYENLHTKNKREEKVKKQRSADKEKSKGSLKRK
SMILES,inhibition at 20 µM (PTPN6 [1]) [%],other results
"O=C1C=CC(=O)c2c(O)cccc21 [compound 362, juglone]",> 60,
"Cc1cc(=O)oc2c(F)c(OP(=O)(O)O)c(F)cc12 [6,8-difluoro-4-methylumbelliferyl phosphate]",,Km (PTPRJ): 66.4 µM; Km (PTPN1): 21.6 µM
"CCOC(=O)c1cc(O)c(O)c(O)c1 [compound 271, ethyl gallate]",,Ki (PTPN6 [2]): 3.4 µM

# Now from value to compound, other results behind:
inhibition at 20 µM (PTPN6 [1]) [%],SMILES,other results
> 60,"COc1ccc(-c2oc3c(CC=C(C)C)c(O[C@@H]4O[C@H](CO)[C@@H](O)[C@H](O)[C@H]4O)cc(O)c3c(=O)c2O)cc1 [compound 335, icariside I]",
> 60,"C[C@@H]1O[C@@H](Oc2c(-c3cc(O)c(O)c(O)c3)oc3cc(O)cc(O)c3c2=O)[C@H](O)[C@H](O)[C@H]1O [compound 429, myricetrin]",
> 60,"CCCCCCCCCCCCCCCCC(C(=O)O)C(O)(CC(=O)O)C(=O)O (stereo not shown) [compound 891, agaric acid]",
